Here are results for 13 molecules from the supplement of paper PMC12420376.

One assay has as its system OVCAR8. In words: drug sensitivity score (DSS2) on cancer cell count; higher = more sensitive; extreme values may be limits of the assay. As to conditions: 72 h. In a few lines:
(§1)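 Ovarian cancer cells were cultured either alone or directly mixed 1:1 with lung or skin fibroblasts and plated onto 384-well plates acoustically pre-spotted with 528 approved and investigational compounds at 5 concentrations for 72 h of treatment. After fixation, cells were immunostained for CK8/18 with Hoechst and imaged at 10× across 4 fields to count cancer cells. Responses were fitted with 4-parameter logistic curves, and from these fits a drug sensitivity score was derived in Breeze, with screen quality assessed by Z'.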

A further assay relates to KURAMOCHI
Described as above. As to conditions: 72 h. In a few lines: as §1

The mark [1] stands for this setting: co-cultured fibroblast: BJHTERT.
Where [2] appears, read: co-cultured fibroblast: none (monoculture).

Consider `Cc1ccc(Nc2nccc(N(C)c3ccc4c(C)n(C)nc4c3)n2)cc1S(N)(=O)=O` [Pazopanib], for which the drug sensitivity score with OVCAR8 (setting [1]) came to 0 DSS; in the assay on OVCAR8 (co-cultured fibroblast: WI38) it was 3.5 DSS; in the assay with OVCAR8 (setting [2]) it was 0 DSS; in the assay with KURAMOCHI (setting [1]), 2 DSS; with KURAMOCHI (co-cultured fibroblast: WI38) it was 2 DSS; in the assay with KURAMOCHI (setting [2]), 5.9 DSS.

With `Cn1c(=O)n(-c2ccc(C(C)(C)C#N)cc2)c2c3cc(-c4cnc5ccccc5c4)ccc3ncc21` [Dactolisib], the drug sensitivity score in the assay on OVCAR8 (setting [1]) came out at 13.3 DSS; with OVCAR8 (co-cultured fibroblast: WI38) it was 8.2 DSS; in the assay on OVCAR8 (setting [2]), 17.6 DSS; with KURAMOCHI (setting [1]) it was 12.4 DSS; in the assay with KURAMOCHI (co-cultured fibroblast: WI38), 15.5 DSS; in the assay with KURAMOCHI (setting [2]), 20.5 DSS.

On to `Nc1nc(NC2CC2)cc(-c2cccc(Cl)c2Cl)n1` [TH588], for which the drug sensitivity score with OVCAR8 (setting [1]) was determined as 7.4 DSS; with OVCAR8 (co-cultured fibroblast: WI38), 4.5 DSS; in the assay with OVCAR8 (setting [2]) it was 3.3 DSS; with KURAMOCHI (setting [1]) it was 6 DSS; in the assay with KURAMOCHI (co-cultured fibroblast: WI38), 6.7 DSS; with KURAMOCHI (setting [2]), 6.5 DSS.

On to `O=c1[nH]c(C2CCCN2)nc2c1oc1ccc(Cl)cc12` (stereo not drawn), for which the drug sensitivity score with OVCAR8 (setting [1]) worked out at 4.4 DSS; in the assay on OVCAR8 (co-cultured fibroblast: WI38), 1.8 DSS; in the assay on OVCAR8 (setting [2]), 2.8 DSS; in the assay on KURAMOCHI (setting [1]) it was 2.2 DSS; in the assay with KURAMOCHI (co-cultured fibroblast: WI38) it was 5.4 DSS; in the assay on KURAMOCHI (setting [2]), 4.1 DSS.

As to `Cc1cccc(CC(=O)N2CCc3c2ccc(-c2cn(C)c4ncnc(N)c24)c3F)n1`, the drug sensitivity score was 1.4 DSS in the assay on OVCAR8 (setting [1]); 0 DSS in the assay with OVCAR8 (co-cultured fibroblast: WI38); 0 DSS with OVCAR8 (setting [2]); 0.3 DSS with KURAMOCHI (setting [1]); 0 DSS in the assay with KURAMOCHI (co-cultured fibroblast: WI38); 0 DSS with KURAMOCHI (setting [2]).

Consider `Cn1cc(C2=Nc3cc(NC(=O)C(N)C4CCCCC4)cc4c3C2=CNNC4=O)cn1` (stereo not drawn), for which the drug sensitivity score in the assay on OVCAR8 (setting [1]) was 16.2 DSS; in the assay on OVCAR8 (co-cultured fibroblast: WI38), 13 DSS; in the assay with OVCAR8 (setting [2]), 16.7 DSS; in the assay with KURAMOCHI (setting [1]) it was 14.6 DSS; in the assay with KURAMOCHI (co-cultured fibroblast: WI38), 12.1 DSS; in the assay on KURAMOCHI (setting [2]), 21 DSS.

With `COc1cc2ncnc(Nc3ccc(F)c(Cl)c3)c2cc1NC(=O)/C=C/CN1CCCCC1` [Dacomitinib], the drug sensitivity score in the assay on OVCAR8 (setting [1]) is 5.5 DSS; in the assay on OVCAR8 (co-cultured fibroblast: WI38), 0 DSS; in the assay on OVCAR8 (setting [2]) it was 3.2 DSS; in the assay on KURAMOCHI (setting [1]), 7 DSS; in the assay on KURAMOCHI (co-cultured fibroblast: WI38), 3.7 DSS; with KURAMOCHI (setting [2]) it was 8.3 DSS.

`CN(C)C[C@@H]1CCn2cc(c3ccccc32)C2=C(C(=O)NC2=O)c2cn(c3ccccc23)CCO1` [Ruboxistaurin]: the drug sensitivity score in the assay on OVCAR8 (setting [1]) was 5.5 DSS; in the assay on OVCAR8 (co-cultured fibroblast: WI38) it was 3.8 DSS; with OVCAR8 (setting [2]) it was 6.9 DSS; in the assay with KURAMOCHI (setting [1]) it was 8.7 DSS; in the assay on KURAMOCHI (co-cultured fibroblast: WI38), 6.5 DSS; in the assay on KURAMOCHI (setting [2]) it was 14.9 DSS.

For `Cn1cnc2c(F)c(Nc3ccc(Br)cc3F)c(C(=O)NOCCO)cc21` [Binimetinib], the drug sensitivity score worked out at 2.4 DSS in the assay on OVCAR8 (setting [1]); 0 DSS with OVCAR8 (co-cultured fibroblast: WI38); 4 DSS with OVCAR8 (setting [2]); 2.2 DSS with KURAMOCHI (setting [1]); 0 DSS with KURAMOCHI (co-cultured fibroblast: WI38); 0 DSS with KURAMOCHI (setting [2]).

As to `Cc1cnc(-c2ccccc2C(C)C)nc1NCc1ccc(-n2ccnn2)cc1` [ML323], the drug sensitivity score with OVCAR8 (setting [1]) stood at 2.9 DSS; with OVCAR8 (co-cultured fibroblast: WI38), 0 DSS; with OVCAR8 (setting [2]), 3.8 DSS; in the assay on KURAMOCHI (setting [1]), 0 DSS; in the assay with KURAMOCHI (co-cultured fibroblast: WI38), 1.3 DSS; in the assay on KURAMOCHI (setting [2]) it was 1.9 DSS.

Take `Oc1nc(-c2ccc(C(F)(F)F)cc2)nc2c1CSCC2` [XAV-939]: the drug sensitivity score amounted to 0.6 DSS with OVCAR8 (setting [1]); 0.1 DSS with OVCAR8 (co-cultured fibroblast: WI38); 0.3 DSS with OVCAR8 (setting [2]); 1.1 DSS with KURAMOCHI (setting [1]); 0 DSS with KURAMOCHI (co-cultured fibroblast: WI38); 0.5 DSS in the assay with KURAMOCHI (setting [2]).

For the molecule `COc1ccc(C[C@H](NC(=O)[C@H](C)NC(=O)CN2CCOCC2)C(=O)N[C@@H](Cc2ccccc2)C(=O)C2(C)CO2)cc1` (stereo in doubt) [ONX-0914], the drug sensitivity score with OVCAR8 (setting [1]) is 8.4 DSS; in the assay on OVCAR8 (co-cultured fibroblast: WI38), 16.1 DSS; in the assay with OVCAR8 (setting [2]), 17.8 DSS; in the assay on KURAMOCHI (setting [1]), 15.7 DSS; with KURAMOCHI (co-cultured fibroblast: WI38) it was 17.7 DSS; in the assay on KURAMOCHI (setting [2]) it was 17.6 DSS.

For the molecule `Cc1cn(-c2cc(NC(=O)c3ccc(C)c(Nc4nccc(-c5cccnc5)n4)c3)cc(C(F)(F)F)c2)cn1` [Nilotinib], the drug sensitivity score in the assay with OVCAR8 (setting [1]) was determined as 0 DSS; with OVCAR8 (co-cultured fibroblast: WI38), 11 DSS; in the assay on OVCAR8 (setting [2]) it was 3 DSS; in the assay on KURAMOCHI (setting [1]), 0 DSS; in the assay on KURAMOCHI (co-cultured fibroblast: WI38), 8 DSS; with KURAMOCHI (setting [2]), 9.8 DSS.
